In patent US9994546B2, “Cyclopropylamines as LSD1 inhibitors” (Incyte Corporation, priority 2014, dated 2018):

Molecular target: LSD-1 enzyme (Homo sapiens (Human), UniProt O60341)
Test: LANCE LSD1/KDM1A demethylase assay (LSD1 histone demethylase biochemical assay)
Details: 1 nM LSD-1 enzyme, 1 hour preincubation at 25° C., 0.4 μM biotin-labeled Histone H3 peptide substrate
Protocol: LANCE LSD1/KDM1A demethylase assay—10 μL of 1 nM LSD-1 enzyme (ENZO BML-SE544-0050) in the assay buffer (50 mM Tris, pH 7.5, 0.01% Tween-20, 25 mM NaCl, 5 mM DTT) were preincubated for 1 hour at 25° C. with 0.8 μL compound/DMSO dotted in black 384 well polystyrene plates. […] After stopping the reactions plates were incubated for 30 minutes and read on a PHERAstar FS plate reader (BMG Labtech).

| Compound | IC50 [nM] |
| --- | --- |
| N#CCC1(N2CCC(CN[C@@H]3C[C@H]3c3ccccc3)CC2)CN(C(=O)c2cc(F)cc(F)c2)C1 (relative stereo) [Example 44, [1-(3,5-Difluorobenzoyl)-3-(4-{[(trans-2-phenylcyclopropyl)amino]methyl}piperidin-1-yl)azetidin-3-yl]acetonitrile] | ≤ 100 |
| N#CCC1(N2CCC(N[C@@H]3C[C@H]3c3ccccc3)CC2)CN(CC(N)=O)C1 [Example 79, 2-[3-(cyanomethyl)-3-(4-{[(1R,2S)-2-phenylcyclopropyl]amino}piperidin-1-yl)azetidin-1-yl]acetamide] | ≤ 100 |
| CNC(=O)CC1(N2CCC(N[C@@H]3C[C@H]3c3ccccc3)CC2)CN(S(C)(=O)=O)C1 [Example 91, N-methyl-2-[1-(methylsulfonyl)-3-(4-{[(1R,2S)-2-phenylcyclopropyl]amino}piperidin-1-yl)azetidin-3-yl]acetamide] | ≤ 100 |
| N#CCC1(N2CCC(CN[C@@H]3C[C@H]3c3ccccc3)CC2)CN(c2ccccc2C#N)C1 (relative stereo) [Example 39, 2-[3-(Cyanomethyl)-3-(4-{[(trans-2-phenylcyclopropyl)amino]methyl}piperidin-1-yl)azetidin-1-yl]benzonitrile] | ≤ 100 |
| CN(C)C(=O)CC1(N2CCC(N[C@@H]3C[C@H]3c3ccccc3)CC2)CCC1 [Example 68, N,N-dimethyl-2-[1-(4-{[(1R,2S)-2-phenylcyclopropyl]amino}piperidin-1-yl)cyclobutyl]acetamide] | ≤ 100 |
| c1ccc([C@@H]2C[C@H]2NCC2CN(C3CCN(c4ccccc4)CC3)C2)cc1 (relative stereo) [Example 29, Trans-2-phenyl-N-{[1-(1-phenylpiperidin-4-yl)azetidin-3-yl]methyl}cyclopropanamine] | ≤ 100 |
| CCS(=O)(=O)N1CC(CC(=O)N(C)C)(N2CCC(N[C@@H]3C[C@H]3c3ccccc3)CC2)C1 [Example 70, 2-[1-(ethylsulfonyl)-3-(4-{[(1R,2S)-2-phenylcyclopropyl]amino}piperidin-1-yl)azetidin-3-yl]-N,N-dimethylacetamide] | ≤ 100 |
| N#CCC1(N2CCC(CN[C@@H]3C[C@H]3c3ccccc3)CC2)CN(c2ncccc2C#N)C1 (relative stereo) [Example 34, 2-[3-(Cyanomethyl)-3-(4-{[(trans-2-phenylcyclopropyl)amino]methyl}piperidin-1-yl)azetidin-1-yl]nicotinonitrile] | ≤ 100 |
